Assay results reported in US20250042920A1 (OCEAN UNIVERSITY OF CHINA, priority 2021, published 2025).
One block for each molecule: values may come before it.

What was measured:
[1] = target: MNK1 (Homo sapiens, UniProt Q9BUB5); experiment: MNK1 kinase inhibition assay (LANCE Ultra kinase activity assay, PerkinElmer); assay type: biochemical; conditions: 450 μM ATP; for IC50: five concentrations 10000-1 nM; for inhibition at 1 µM: inhibition rate at 1000 nM compound, 60 min, 25° C., read-out: Inhibitory activity(1 μM) MNK1
Chain of MNK1 (Q9BUB5 whole entry): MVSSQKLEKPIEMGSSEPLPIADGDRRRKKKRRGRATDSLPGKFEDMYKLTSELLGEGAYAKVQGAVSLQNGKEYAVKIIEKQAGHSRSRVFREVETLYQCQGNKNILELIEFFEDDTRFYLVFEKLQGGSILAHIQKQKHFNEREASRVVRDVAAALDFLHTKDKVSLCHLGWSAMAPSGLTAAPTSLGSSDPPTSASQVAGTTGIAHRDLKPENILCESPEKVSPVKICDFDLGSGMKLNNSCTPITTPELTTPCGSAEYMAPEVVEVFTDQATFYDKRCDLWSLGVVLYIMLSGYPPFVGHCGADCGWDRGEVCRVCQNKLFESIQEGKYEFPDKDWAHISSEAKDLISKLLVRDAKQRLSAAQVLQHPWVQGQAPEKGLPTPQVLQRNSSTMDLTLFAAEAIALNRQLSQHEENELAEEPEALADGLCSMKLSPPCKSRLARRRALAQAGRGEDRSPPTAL
Procedure: (§1) MNK1 and MNK2 kinase inhibition assays were performed using LANCE Ultra kinase activity assay developed by PerkinElmer. […] The test steps are as follows: At 25° C., 1.00 ng MNK1 or 0.05 ng MNK2 was prepared with different concentrations (10000, 1000, 100, 10, 1 nM) of the tested compound to form a total volume of 10 μL reaction mixture (MNK1: 12.5 nM CREB, 450 μM ATP, 2 mM DTT, 1× buffer; MNK2: 12.5 nM CREB, 100 μM ATP, 2 mM DTT, 1×buffer), and incubation for 60 min. The reaction was terminated by adding 5 μL EDTA/Detection buffer and 5 μL Eu-CREB/Detection buffer. The ratio of HTRF signals at 615 nm and 665 nm was detected after 60 min of incubation. The inhibition rate was calculated by measuring the compounds at 1000 nM.
(§2) Then five different concentrations (10000, 1000, 100, 10, 1 nM) of the tested compounds were measured, and the IC50 value was calculated according to the inhibition rate fitting curve.

[2] = target: MNK2 (Homo sapiens, UniProt Q9HBH9); experiment: MNK2 kinase inhibition assay (LANCE Ultra kinase activity assay, PerkinElmer); assay type: biochemical; conditions: 100 μM ATP; for IC50: five concentrations 10000-1 nM; for inhibition at 1 µM: inhibition rate at 1000 nM compound, 60 min, 25° C., read-out: Inhibitory activity(1 μM) MNK2
Chain of MNK2 (Q9HBH9 whole entry): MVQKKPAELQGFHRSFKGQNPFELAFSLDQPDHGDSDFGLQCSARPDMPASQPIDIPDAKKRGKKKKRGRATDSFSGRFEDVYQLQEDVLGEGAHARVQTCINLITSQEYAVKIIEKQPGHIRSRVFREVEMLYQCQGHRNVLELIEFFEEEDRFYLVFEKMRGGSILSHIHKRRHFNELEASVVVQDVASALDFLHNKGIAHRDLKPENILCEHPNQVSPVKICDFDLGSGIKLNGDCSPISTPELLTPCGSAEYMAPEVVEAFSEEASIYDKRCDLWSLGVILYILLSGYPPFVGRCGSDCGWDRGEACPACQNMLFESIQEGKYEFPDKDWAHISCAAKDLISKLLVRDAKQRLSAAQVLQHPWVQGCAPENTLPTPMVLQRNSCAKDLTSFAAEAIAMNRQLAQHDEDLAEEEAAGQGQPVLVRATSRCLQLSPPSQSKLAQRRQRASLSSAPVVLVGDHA
Procedure: as §1, §2

[3] = test system: C57BL/6J male mice, high-fat diet obesity model; experiment: Weight loss trial in a high-fat feeding obesity model; assay type: in vivo; conditions: obese C57BL/6J mice; 50 or 100 mg/kg daily gavage; after 1 month of treatment
Procedure: C57BL/6J male mice were fed with high-fat diet (60 kcal %) and low-fat diet (10 kcal %), respectively. After 16 weeks, the obesity model was successfully established (the body weight of high-fat diet was higher than 20% of the body weight of low-fat diet). They were divided into blank group, 12 high dose group (100 mg/kg), 12 low dose group (50 mg/kg) and orlistat group (50 mg/kg). The mice in the control group were given normal saline as the control, and the daily afternoon gavage of the drug for 4 weeks.

[4] = test system: STZ+ high-fat fed type 2 diabetic Kunming mice; experiment: Hypoglycemic test in STZ+ high-fat fed diabetic mouse model; assay type: in vivo; conditions: for blood glucose: gavage, 8 weeks (FIG. 1)
Procedure: A total of 50 male Kunming mice were fed in a constant temperature of 25° C. with free access to food and water. After 5 days of adaptive feeding, the mice were divided into two groups for the first time. The first group (n=10) was the blank group (C) fed with normal diet, and the rest were the second group (n=40) fed with 60% high-fat diet to induce high-fat model and free access to water for 4 weeks. At the fifth week, the mice in the second group were injected with streptozotocin (STZ) to induce type 2 diabetes model. The total injection dose was 150 mg/kg, and the feeding conditions were unchanged. Type 2 diabetic mice with blood glucose levels higher than 11 mmol/L were divided into model group (M, n=10) and […]. Distilled water), metformin group (Meft, 225 mg/kg/d), compound 12 low-dose group (2A-L, 50 mg/kg/d), compound 12 high-dose group (2A-H, 100 mg/kg/d). The […] in group M were given distilled water by gavage every morning, and the dosage was Meft: 225 mg/kg. 2A-L: 50 mg/kg; 2A-H: 100 mg/kg. The mice were administrated by gavage at a dose of […] for 8 weeks, and the body weight and fasting blood glucose were measured regularly during the period.

[5] = test system: male db/db mice; experiment: Insulin tolerance and liver function improvement test in male db/db mouse model; assay type: in vivo
Procedure: Six-week-old male db/db mice were randomly divided into 6 groups of 12 mice in each group: Model group (M, distilled water), metformin group (Meft, 200 mg/kg/d), lovastatin group (6 mg/kg), compound 12 low dose group (20 mg/kg/d), compound 12 middle dose group (40 mg/kg/d), compound 12 high dose group (80 mg/kg/d). They were raised in a constant temperature of 25° C. and fed and drinking freely. The mice were administrated by gavage at a dose of […] for 6 weeks, and the body weight and fasting blood glucose were measured regularly during the period.
Insulin tolerance test (ITT) was performed with […] (1.0 U/ml, 1.0 U/kg) and fasting for 4 hours in the morning. In the afternoon experiment, weight was weighed, blood glucose was measured before insulin injection, insulin injection volume was calculated according to body weight, and blood glucose was measured at 15 min, 30 min, 45 min, and 60 min. At the end of the experiment, each cage was supplemented with feed.

[6] = compared with the model group (FIG. 3)
[7] = high-dose group (80 mg/kg/d) vs model group (FIG. 5)

IC50 [1]: < 50 nM | inhibition at 1 µM [1]: > 75% | IC50 [2]: < 50 nM | inhibition at 1 µM [2]: > 75%
Compound: CN(C)C1CCN(C(=O)c2ccc(-c3nn4c(-c5ccc(C#N)cc5)cnc4s3)cc2)CC1 [Compound 12, 4-(2-(4-(4-(dimethylamino)piperidine-1-carbonyl)phenyl)imidazo[2,1-b][1,3,4]thiadiazol-5-yl)benzonitrile]
body weight [3]: decreased significantly | glucose tolerance ([4]; 50 and 100 mg/kg/d (FIG. 2)): improved | serum AST levels ([4]; FIG. 3): significantly reduced | serum creatinine (CREA) ([4]; after administration, vs model group (FIG. 3)): decreased significantly | serum TC [4, 6]: significantly decreased | serum TG [4, 6]: significantly decreased | hypoglycemic effect compared with positive control (metformin, 225 mg/kg) ([4]; high dose group 100 mg/kg/d): better hypoglycemic effect than the positive control | blood glucose ([4]; high dose group 100 mg/kg/d): significantly reduced | insulin sensitivity (insulin tolerance test) ([4]; low and high dose groups vs model group, after intraperitoneal insulin (FIG. 2)): restored insulin sensitivity | hypoglycemic effect compared with positive control (metformin, 225 mg/kg) ([4]; low dose group 50 mg/kg/d): equivalent to that of the positive control group | blood glucose ([4]; low dose group 50 mg/kg/d): significantly reduced | reduction of TC compared with metformin ([4]; metformin 225 mg/kg/d): even better than metformin | blood levels of GLP-1 ([5]; FIG. 6): Increased | serum content of insulin INS ([5]; after high dose administration (FIG. 6)): significantly increased | inflammatory cytokine IL-6 ([5]; at low doses (FIG. 6)): significantly decreased | inflammatory cytokine TNF ([5]; at low doses (FIG. 6)): significantly decreased | plasma BNP ([5]; at low doses (FIG. 6)): significantly decreased | insulin sensitivity (insulin tolerance test, ITT) ([5]; db/db mice, gavage 6 weeks, each drug group, especially 12 high-dose group (80 mg/kg/d) (FIG. 4)): significantly improved | serum ALT [5, 7]: significant decreases | serum AST [5, 7]: significant decreases | serum total bile acid content [5, 7]: significant decreases

inhibition at 1 µM [1]: 25 to 50% | inhibition at 1 µM [2]: 25 to 50%
Compound: CN(C)C1CCN(C(=O)c2ccc(-c3cn4c(-c5ccc(C(F)(F)F)cc5)csc4n3)cc2)CC1 [Compound 54, (4-(dimethylamino)piperidin-1-yl)(4-(3-(4-(trifluoromethyl)ph-enyl)imidazo [2,1-b]thiazol-6-yl)phenyl)methanone]

inhibition at 1 µM [1]: > 75% | inhibition at 1 µM [2]: > 75%
Compound: Cc1ccc(-c2cnc3sc(-c4ccc(C(=O)N5CCOCC5)cc4)nn23)cc1 [Compound 7, morpholino(4-(5-(p-tolyl)imidazo[2,1-b][1,3,4]thiadiazol-2-yl)phenyl)methanone]

IC50 [1]: < 50 nM | inhibition at 1 µM [1]: > 75% | IC50 [2]: < 50 nM | inhibition at 1 µM [2]: > 75%
Compound: COc1ccc(-c2cnc3sc(-c4ccc(C(=O)N5CCC(N(C)C)CC5)cc4)nn23)cc1 [Compound 15, (4-(dimethylamino)piperidin-1-yl)(4-(5-(4-methoxyphenyl)imidazo[2,1-b][1,3,4]thiadiazol-2-yl)phenyl)methanone]

inhibition at 1 µM [1]: > 75% | inhibition at 1 µM [2]: > 75%
Compound: O=C(c1ccc(-c2nn3c(-c4ccc(C(F)(F)F)c(F)c4)cnc3s2)cc1)N1CCOCC1 [Compound 9, (4-(5-(3-fluoro-4-(trifluoromethyl)phenyl)imidazo[2,1-b][1,3,4]thiadiazol-2-yl)phenyl)(morpholino)methanone]

IC50 [1]: < 50 nM | inhibition at 1 µM [1]: > 75% | IC50 [2]: < 50 nM | inhibition at 1 µM [2]: > 75%
Compound: CN1CCN(C(=O)c2ccc(-c3nn4c(-c5ccc(Cl)cc5)cnc4s3)cc2)CC1 [Compound 22, (4-(5-(4-chlorophenyl)imidazo[2,1-b][1,3,4]thiadiazol-2-yl)phenyl)(4-methylpiperazin-1-yl)methanone]

IC50 [1]: < 50 nM | inhibition at 1 µM [1]: > 75% | IC50 [2]: < 50 nM | inhibition at 1 µM [2]: > 75%
Compound: CN1CCN(C(=O)c2ccc(-c3nn4c(-c5ccc(C(F)(F)F)cc5)cnc4s3)cc2)CC1 [Compound 21, (4-methylpiperazin-1-yl)(4-(5-(4-(trifluoromethyl)phenyl)imidazo[2,1-b][1,3,4]thiadiazol-2-yl)phenyl)methanone]

IC50 [1]: < 50 nM | inhibition at 1 µM [1]: > 75% | IC50 [2]: < 50 nM | inhibition at 1 µM [2]: > 75%
Compound: CN1CCN(C(=O)c2ccc(-c3nn4c(-c5ccc([N+](=O)[O-])cc5)cnc4s3)cc2)CC1 [Compound 25, (4-methylpiperazin-1-yl)(4-(5-(4-nitrophenyl)imidazo[2,1-b][1,3,4]thiadiazol-2-yl)phenyl)methanone]

inhibition at 1 µM [1]: 25 to 50% | inhibition at 1 µM [2]: 25 to 50%
Compound: N#Cc1ccc(-c2cnc3sc(-c4ccc(C(=O)OCCN5CCCC5)cc4)nn23)cc1 [Compound 31, 2-(pyrrolidin-1-yl)ethyl 4-(5-(4-cyanophenyl)imidazo[2,1-b][1,3,4]thiadiazol-2-yl)benzoate]

IC50 [1]: < 50 nM | inhibition at 1 µM [1]: > 75% | IC50 [2]: < 50 nM | inhibition at 1 µM [2]: > 75%
Compound: O=C(c1ccc(-c2nn3c(-c4ccc(O)cc4)cnc3s2)cc1)N1CCOCC1 [Compound 3, (4-(5-(4-hydroxyphenyl)imidazo[2,1-b][1,3,4]thiadiazol-2-yl)phenyl)(morpholino)methanone]

inhibition at 1 µM [1]: 25 to 50% | inhibition at 1 µM [2]: 25 to 50%
Compound: COc1ccc(-c2csc3nc(-c4ccc(C(=O)N5CCOCC5)cc4)cn23)cc1 [Compound 45, (4-(3-(4-methoxyphenyl)imidazo[2,1-b]thiazol-6-yl)phenyl)(morpholino)methanone]

inhibition at 1 µM [1]: 25 to 50% | inhibition at 1 µM [2]: 25 to 50%
Compound: CN1CCN(C(=O)c2ccc(-c3cn4c(-c5ccc(C#N)cc5)csc4n3)cc2)CC1 [Compound 48, 4-(6-(4-(4-methylpiperazine-1-carbonyl)phenyl)imidazo[2,1-b]thiazol-3-yl)benzonitrile]

IC50 [1]: 800 to 1500 nM | inhibition at 1 µM [1]: 50 to 75% | IC50 [2]: 200 to 800 nM | inhibition at 1 µM [2]: > 75%
Compound: CN1CCN(C(=O)c2ccc(-c3nn4c(-c5ccc(F)nc5)cnc4s3)cc2)CC1 [Compound 28, (4-(5-(6-fluoropyridin-3-yl)imidazo[2,1-b][1,3,4]thiadiazol-2-yl)phenyl)(4-methylpiperazin-1-yl)methanone]
